Where “and” joins values, the source holds several entries; their conditions need not be identical. Equal values may be shown once. Entries after “also recorded” stand apart in the source; their conditions may differ. Read-outs that look alike come from different tables or passages of the source.
Experiments:
HoblCSP1 [1] = molecular target: T1, HoblCSP1 (Holotrichia oblita, UniProt G9BWI4); assay: Fluorescence competition assay with 1-NPN, recombinant HoblCSP1; format: binding; settings: for binding affinity to HoblCSP1, in words: competition assay
Experimental: (§1) Fluorescence binding assay was based on method previously described by Yin et al.. Briefly, fifty compounds (Sigma-Aldrich, Germany) with chemical purities ≥97% were tested in a Lengguang 970 CRT spectrofluorimeter (Shanghai Jingmi, China). […] Binding data for each ligand was collected from 3 measurements.
(§2) Figure 3 Fluorescence competition assay of the recombinant HoblCSP1 and HoblCSP2. (A) Binding curves of 1-NPN with HoblCSP1 and HoblCSP2 and their relative Scatchard plots. […] (B) Representative competitive binding curves of the recombinant HoblCSP1 to a series selected ligands (see Table 1). All proteins used were diluted to a fixed concentration of 2 µM, while the concentration of 1-NPN varied with the respective dissociation constant of HoblCSPs/1-NPN. […] Fluorescence intensities are plotted as percent of the initial fluorescence in the absence of ligands. The molecular formulas of representative ligands are shown here as well.

HoblCSP2 [2] = molecular target: T2, HoblCSP2 (Holotrichia oblita, UniProt G9BWQ6); assay: Fluorescence competition assay with 1-NPN, recombinant HoblCSP2; format: binding; settings: for binding affinity to HoblCSP2, in words: competition assay
Experimental: as §1, §2

H.oblita antennae = system: H.oblita antennae; parameters: method as in PMID 21852709; settings: cited from earlier work
AgamCSP3 = system: AgamCSP3; parameters: method as in PMID 23599217; settings: cited from earlier work
HoblCSP1 [3] = molecular target: T1, HoblCSP1; assay: Fluorescence binding of 1-NPN to HoblCSP1 (binding curve, Scatchard plot); settings: 2 µM protein; 1-NPN 2∼24 µM; read-out: dissociation constant of CSP1/1-NPN
Experimental: (§3) Fluorescence binding assay was based on method previously described by Yin et al.. Briefly, fifty compounds (Sigma-Aldrich, Germany) with chemical purities ≥97% were tested in a Lengguang 970 CRT spectrofluorimeter (Shanghai Jingmi, China). Assuming the proteins were 100% active, the binding affinities for N-phenyl-1-naphthylamine (1-NPN) were determined by adding aliquots of 1-NPN into a 2 µM protein solution for final concentrations of 2∼24 µM. The dissociation constants of the binding competitors were calculated from IC50 according to Campanacci et al: Ki = [IC50]/(1+[1-NPN]/K(1-NPN)), where [1-NPN] represents the concentration of unbound 1-NPN and K(1-NPN) is the dissociation constant of 1-NPN [46]. Binding data for each ligand was collected from 3 measurements.
(§4) Figure 3 Fluorescence competition assay of the recombinant HoblCSP1 and HoblCSP2. (A) Binding curves of 1-NPN with HoblCSP1 and HoblCSP2 and their relative Scatchard plots. The dissociation constant of HoblCSP1 is 2.53 µM and that of HoblCSP2 is 2.93 µM. (B) Representative competitive binding curves of the recombinant HoblCSP1 to a series selected ligands (see Table 1). […] Fluorescence intensities are plotted as percent of the initial fluorescence in the absence of ligands. […]

HoblCSP2 [4] = molecular target: T2, HoblCSP2; assay: Fluorescence binding of 1-NPN to HoblCSP2 (binding curve, Scatchard plot); settings: 2 µM protein; 1-NPN 2∼24 µM; read-out: dissociation constant of CSP2/1-NPN
Experimental: as §3, §4

H.oblita = system: H.oblita; parameters: method as in earlier work; settings: cited from earlier work
[5] = competition with 1-NPN, 2 µM protein, ligand 0–28 µM, Ki calculated from IC50, 3 measurements, read-out: HoblCSP1 Ki
[6] = competition with 1-NPN, 2 µM protein, ligand 0–28 µM, Ki calculated from IC50, 3 measurements, read-out: HoblCSP2 Ki

T1 sequence (G9BWI4 entry or part of it): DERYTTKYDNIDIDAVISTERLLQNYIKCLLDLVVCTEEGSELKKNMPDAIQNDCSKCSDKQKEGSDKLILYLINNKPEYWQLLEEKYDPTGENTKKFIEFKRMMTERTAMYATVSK
T2 sequence (G9BWQ6 entry or part of it): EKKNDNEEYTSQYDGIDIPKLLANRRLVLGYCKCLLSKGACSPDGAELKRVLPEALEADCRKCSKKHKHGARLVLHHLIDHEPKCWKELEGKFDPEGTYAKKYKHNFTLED

Compound | Ki (HoblCSP1 [1]) [µM] | binding affinity to HoblCSP1, in words (HoblCSP1 [1]) | binding affinity to HoblCSP2, in words (HoblCSP2 [2]) | Ki (HoblCSP1 [1]; [5]) [µM] | other results
CC(=O)/C=C/C1C(C)=CCCC1(C)C (stereo not drawn) [α-ionone] | 10.5 | highest affinities | highest affinities | – | Ki (HoblCSP2 [2]): 11.5 µM; electrophysiological response in H.oblita antennae (EAG) (H.oblita antennae): strong electrophysiological responses
CC(=O)CCC=C(C)C [6-Methyl-5-hepten-2-one] | – | – | higher affinities | – | Ki (HoblCSP2 [2]): 56.9 µM
CC1=CC[C@@H](C(C)(C)O)CC1 [α -terpineol] | – | – | – | 46.8 | Ki (HoblCSP2 [2]; [6]): 39.4 µM
CCC/C=C/C=O [trans-2-hexenal] | 24.9 | medium affinities | medium affinities | – | Ki (HoblCSP2 [2]): 25.7 µM
CC(C)=CCC[C@@H](C)CC=O [citronellal] | – | – | – | – | best ligands for AgamCSP3 (AgamCSP3): best ligands
COC(=O)[C@@H]1CCCN1 [L-Proline methyl ester] | – | limited affinities | limited affinities | 57 | –
C=C1C2CCC(C2)C1(C)C (centres unmarked) [camphene] | – | able to bind camphene, albeit with a high Ki value | could not bind camphene at all | 37.9 | –
CCCCCCCCO [1-octanol] | – | – | – | 35.9 | Ki (HoblCSP2 [2]; [6]): 40.6 µM
CC(C)=CCC/C(C)=C/CO [geraniol] | 29.5 | medium affinities | medium affinities | – | Ki (HoblCSP2 [2]): 30.2 µM
CC(C)(C)C1CCC(O)CC1 (centres unmarked) [4-tert-butylcyclohexanol] | – | – | – | 34.6 | Ki (HoblCSP2 [2]; [6]): 50.7 µM
COC(=O)c1ccccc1C(=O)OC [dimererhyl phthalate] | – | higher affinities | – | 22.3 | –
COC(=O)c1ccccc1O [methyl salicylate] | 47.3 | higher affinities | – | – | –
CC(=O)/C=C/C1=C(C)CCCC1(C)C [β-ionone] | 4.3 | bound most strongly; also recorded: highest affinities; also recorded: best ligand | bound most strongly; also recorded: highest affinities | – | Ki (HoblCSP2 [2]): 4.47 µM
CC/C=C\CCO [cis-3-hexen-1-ol] | – | – | higher affinities | – | Ki (HoblCSP1 [1]; read-out: HoblCSP1 Ki, competition with 1-NPN, 2 µM protein, ligand 0–28 µM, Ki calculated from IC50, 3 measurements): 46.9 µM; Ki (HoblCSP2 [2]; read-out: HoblCSP2 Ki, competition with 1-NPN, 2 µM protein, ligand 0–28 µM, Ki calculated from IC50, 3 measurements): 47.8 µM and 35.7 µM
c1ccc(Nc2cccc3ccccc23)cc1 [1-NPN, N-phenyl-1-naphthylamine] | – | – | – | – | Kd (HoblCSP1 [3]): 2.53 µM; Kd (HoblCSP2 [4]): 2.93 µM
COc1ccccc1 [anisole] | – | – | – | 28.4 | Ki (HoblCSP2 [2]; [6]): 29.5 µM
CCCCCCCCC=O [nonanal] | – | – | – | – | best ligands for AgamCSP3 (AgamCSP3): best ligands
CCCCCCO [hexanol] | – | – | – | 57.6 | Ki (HoblCSP2 [2]; [6]): 60.5 µM
CC[C@H](C)[C@H](N)C(=O)OC [L-Isoleucine methyl este] | – | limited affinities | limited affinities | – | –
CC1=C(/C=C/C(C)=C/C=C/C(C)=C/C=O)C(C)(C)CCC1 [retinal] | – | – | – | – | best ligands for AgamCSP3 (AgamCSP3): best ligands
O=Cc1ccccc1 [benzaldehyde] | 23.3 | medium affinities | medium affinities | – | Ki (HoblCSP2 [2]): 19.5 µM
C=CC(=C)CCC=C(C)C [myrcene] | – | medium affinities | medium affinities | 25.4 | Ki (HoblCSP2 [2]; [6]): 29.5 µM
CCOC(=O)CN [Glycine ethyl ester] | – | limited affinities | limited affinities | 43.5 | Ki (HoblCSP2 [2]; [6]): 39.5 µM
O=C/C=C/c1ccccc1 [cinnamaldehyde] | 20.5 | highest affinities | highest affinities | – | Ki (HoblCSP2 [2]): 17.5 µM; electrophysiological response in H.oblita antennae (EAG) (H.oblita antennae): strong electrophysiological responses; attraction to H.oblita (H.oblita): great attraction
OCc1ccccc1 [benzyl alcohol] | 34.9 | – | – | – | Ki (HoblCSP2 [2]): 54.8 µM
C=CCc1ccc(O)c(OC)c1 [eugenol] | 30 | higher affinities | – | – | –
CCCCC(CC)CO (centres unmarked) [2-Ethy1-1-Hexanol] | – | – | – | 29.9 | Ki (HoblCSP2 [2]; [6]): 32.1 µM
C=CC(O)CCCCC (centres unmarked) [1-Octen-3-ol] | – | – | – | 48.1 | –

From article PMC4154846, “Functional Characterization of Chemosensory Proteins in the Scarab Beetle, Holotrichia oblita Faldermann (Coleoptera: Scarabaeida)” (PLoS ONE, 2014)
